From US20250122225A1, “MASP-2 INHIBITORS AND METHODS OF USE” (Omeros Corporation, priority 2023, published 2025) come the findings set out here.

Structures are written as SMILES. Where a name gives a salt, the structure may show the parent alone.

One assay concerns the target T1, MASP-2 (CCP1-CCP2-SP) (Homo sapiens, UniProt O00187).
T1 construct: 15 μL of Enzyme MASP-2 (CCP1-CCP2-SP) in Assay Buffer
The experiment in a line: Enzymatic assay for MASP-2 inhibitory activity (fluorogenic substrate). The class given is biochemical. The protocol: The MASP-2 assay utilizes a fluorogenic substrate, based on the cleavage site for its natural substrate C2. The assay was run at room temperature in an assay buffer containing 20 mM HEPES, pH 7.4, 140 mM NaCl and 0.1% Tween 20. Assay parameters were adjusted such that the assay was linear with respect to time, enzyme, and substrate concentrations. Under the optimized assays conditions, IC50 values were equivalent to Ki values, except in the few cases of “tight binding” inhibitors. Cases of “tight binding” or possible “slow binding” inhibitors were handled by the methods described in Copeland R. A. (2013) Evaluation of Enzyme Inhibitors in Drug Discovery. 2nd Ed., John Wiley and Sons, Inc., Chapters 5-7.
The MASP-2 assay protocol was carried out as follows. Test compounds were serially diluted in DMSO and then 100 nL of each dilution was transferred to the assay plate(s). 10 μL of Assay Buffer was added, followed by 15 μL of Enzyme MASP-2 (CCP1-CCP2-SP) in Assay Buffer. 15 μL of Substrate in Assay Buffer was then added and the mixture was mixed to start the reaction. After 20 min at room temperature, 15 μL of a stop solution (0.1 M acetic acid) was added, the sample was mixed, and the plates were read on a SpectraMax i3x Microplate Reader with the data exported as an Excel file. Each assay plate included a “no inhibitor” (DMSO only) control, a “no enzyme” control, and a reference inhibitor control. % Activity values=100*(average test comp. fluorescence−average “no enzyme” fluorescence)/(average “DMSO only” fluorescence−average “no enzyme” fluorescence). IC50 and Ki replicate values were very reproducible, with values well within ±2-fold.

A further assay addresses T2, human α-thrombin (Homo sapiens, UniProt P00734).
T2 construct: enzyme (human α-thrombin (BioPharm® Lab.)) in assay buffer; purchased BioPharm® Lab
Description: Enzymatic assay for thrombin (fluorogenic peptide substrate Boc-VPR-AMC). The class given is biochemical. The protocol: The thrombin assay utilizes a fluorogenic peptide substrate (Boc-VPR-AMC (R&D Systems) and was run at room temperature in an assay buffer containing 20 mM Hepes, pH 7.4, 140 mM NaCl and 0.1% Tween 20. Assay parameters were adjusted such that the assay was linear with respect to time, enzyme, and substrate concentrations. Under these optimized assays conditions, IC50 values were equivalent to Ki values, except in a few cases of “tight binding” inhibitors. Cases of “tight binding” or possible “slow binding” inhibitors were handled by the methods described in Copeland R. A. (2013) Evaluation of Enzyme Inhibitors in Drug Discovery. 2nd Ed. John Wiley and Sons, Inc., Chapters 5-7.
The thrombin assay protocol was carried out as follows. Test compounds were serially diluted in DMSO and then 100 nL of each dilution was transferred to the assay plate(s). 10 μL of Assay Buffer was added, followed by 15 μL of enzyme (human α-thrombin (BioPharm® Lab.)) in assay buffer. 15 μL of substrate in assay buffer was then added and the sample mixed to start the reaction. After 20 min at room temperature, 15 μL of a stop solution (0.1 M acetic acid) was added, the sample was mixed, and the plates were read on a SpectraMax® i3x Microplate Reader with the data exported as Excel files. Each assay plate included a “no inhibitor” (DMSO only) control, a “no enzyme” control, and a reference inhibitor control. % Activity values=100*(ave. test comp. fluorescence−ave. “no enz” fluorescence)/(ave. “DMSO only” fluorescence−ave. “no enz” fluorescence). IC50 and Ki values were very reproducible, with values falling well within ±2-fold.

As a reminder, the Ki is the equilibrium dissociation constant of an inhibitor or competing ligand from its target. Low readings indicate tighter binding, high ones weaker binding.

T1 sequence (O00187 445-686 limits assumed): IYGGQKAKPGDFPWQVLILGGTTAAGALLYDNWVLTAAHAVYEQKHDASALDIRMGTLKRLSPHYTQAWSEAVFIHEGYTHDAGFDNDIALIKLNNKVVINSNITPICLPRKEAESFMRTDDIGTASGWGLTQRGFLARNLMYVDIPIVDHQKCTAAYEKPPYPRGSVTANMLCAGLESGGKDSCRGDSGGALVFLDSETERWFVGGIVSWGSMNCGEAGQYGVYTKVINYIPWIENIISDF
T1 sequence (O00187 287-444 partner limits assumed): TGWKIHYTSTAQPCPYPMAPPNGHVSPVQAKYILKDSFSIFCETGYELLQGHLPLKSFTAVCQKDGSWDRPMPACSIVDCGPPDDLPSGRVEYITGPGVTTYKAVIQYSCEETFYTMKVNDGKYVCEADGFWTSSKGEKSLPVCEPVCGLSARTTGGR

For `Cc1cc(F)cc(CNc2ncc3n(c2=O)[C@H](C(=O)NCc2ccc(N)c(Cl)c2)CC3)c1` [Compound 188, (S)-N-(4-amino-3-chlorobenzyl)-3-((3-fluoro-5-methylbenzyl)amino)-4-oxo-4,6,7,8-tetrahydropyrrolo[1,2-a]pyrazine-6-carboxamide], the Ki on MASP-2 (CCP1-CCP2-SP) and on human α-thrombin was below 500 nM in each case.
In the case of `Cc1cc(C)cc(CNc2ncc3n(c2=O)[C@H](C(=O)NCc2cc4cnc(C)cc4[nH]2)CC3)c1` [Compound 50, (S)-3-((3,5-dimethylbenzyl)amino)-N-((6-methyl-1H-pyrrolo[3,2-c]pyridin-2-yl)methyl)-4-oxo-4,6,7,8-tetrahydropyrrolo[1,2-a]pyrazine-6-carboxamide], the Ki on MASP-2 (CCP1-CCP2-SP) was below 500 nM; at human α-thrombin, 10000 to 25000 nM.
For the compound `Cc1ccc(F)c(CNc2nc(Cl)c3n(c2=O)[C@H](C(=O)NCc2cc4cnccc4[nH]2)CC3)c1` [Compound 21, (S)-N-((1H-pyrrolo[3,2-c]pyridin-2-yl)methyl)-1-chloro-3-((2-fluoro-5-methylbenzyl)amino)-4-oxo-4,6,7,8-tetrahydropyrrolo[1,2-a]pyrazine-6-carboxamide], the Ki at MASP-2 (CCP1-CCP2-SP) is below 500 nM; on human α-thrombin, 2500 to 10000 nM.
With `O=C(NCc1cc2cnccc2[nH]1)[C@@H]1CCc2c(Cl)nc(NCCc3ccccc3)c(=O)n21` [Compound 249], the Ki at MASP-2 (CCP1-CCP2-SP) is below 500 nM; at human α-thrombin it was 500 to 2500 nM.
Consider `Cc1cc(C)cc(CNc2ncc3n(c2=O)[C@H](C(=O)NCc2cc4c(s2)CN(C)C4)CC3)c1` [Compound 42, (S)-3-((3,5-dimethylbenzyl)amino)-N-((5-methyl-5,6-dihydro-4H-thieno[2,3-c]pyrrol-2-yl)methyl)-4-oxo-4,6,7,8-tetrahydropyrrolo[1,2-a]pyrazine-6-carboxamide trifluoroacetate], for which the Ki on MASP-2 (CCP1-CCP2-SP) was below 500 nM; on human α-thrombin it was 10000 to 25000 nM.
`Cc1cc(CNc2nc(Cl)c3n(c2=O)[C@H](C(=O)NCc2cc4cnccc4[nH]2)CC3)cc(C(F)(F)F)c1` [Compound 23, (S)-N-((1H-pyrrolo[3,2-c]pyridin-2-yl)methyl)-1-chloro-3-((3-methyl-5-(trifluoromethyl)benzyl)amino)-4-oxo-4,6,7,8-tetrahydropyrrolo[1,2-a]pyrazine-6-carboxamide]: the values for the Ki at MASP-2 (CCP1-CCP2-SP) and at human α-thrombin were below 500 nM and above 25000 nM, respectively.
As for `Cc1cc(F)cc(CNc2nc(C(C)C)c3n(c2=O)[C@H](C(=O)NCc2ccc(N)nc2C)CC3)c1` [Compound 211, (S)-N-((6-amino-2-methylpyridin-3-yl)methyl)-3-((3-fluoro-5-methylbenzyl)amino)-1-isopropyl-4-oxo-4,6,7,8-tetrahydropyrrolo[1,2-a]pyrazine-6-carboxamide trifluoroacetate], the Ki on MASP-2 (CCP1-CCP2-SP) and at human α-thrombin was below 500 nM each time.
As to `O=C(NCc1cc2c(s1)CNC2)[C@@H]1CCc2cnc(NCC3(c4ccccc4)CCC3)c(=O)n21` [Compound 271, (S)-N-((5,6-dihydro-4H-thieno[2,3-c]pyrrol-2-yl)methyl)-4-oxo-3-(((1-phenylcyclobutyl)methyl)amino)-4,6,7,8-tetrahydropyrrolo[1,2-a]pyrazine-6-carboxamide trifluoroacetate], the Ki on MASP-2 (CCP1-CCP2-SP) and on human α-thrombin was below 500 nM throughout.
As to `Cc1cc(F)cc(CNc2nc(-c3ccnn3C)c3n(c2=O)[C@H](C(=O)NCc2cc4c(s2)CNC4)CC3)c1` [Compound 209, (S)—N-((5,6-dihydro-4H-thieno[2,3-c]pyrrol-2-yl)methyl)-3-((3-fluoro-5-methylbenzyl)amino)-1-(1-methyl-1H-pyrazol-5-yl)-4-oxo-4,6,7,8-tetrahydropyrrolo[1,2-a]pyrazine-6-carboxamide trifluoroacetate], the Ki at MASP-2 (CCP1-CCP2-SP) was below 500 nM; at human α-thrombin, 2500 to 10000 nM.
In the case of `O=C(NCc1cc2cnccc2[nH]1)[C@@H]1CCc2c(Cl)nc(NCC3(c4ccccc4)CC3)c(=O)n21` [Compound 245], the Ki is below 500 nM at MASP-2 (CCP1-CCP2-SP) and 500 to 2500 nM on human α-thrombin.
For the compound `O=C(NCc1cc2cnccc2[nH]1)[C@@H]1CCc2cnc(NCc3cccc(C(F)(F)F)c3)c(=O)n21` [Compound 117, (S)-N-((1H-pyrrolo[3,2-c]pyridin-2-yl)methyl)-4-oxo-3-((3-(trifluoromethyl)benzyl)amino)-4,6,7,8-tetrahydropyrrolo[1,2-a]pyrazine-6-carboxamide trifluoroacetate], the figures for the Ki on MASP-2 (CCP1-CCP2-SP) and on human α-thrombin were below 500 nM and 2500 to 10000 nM, respectively.
In the case of `CC[C@@H](Nc1ncc2n(c1=O)[C@H](C(=O)NCc1cc3c(s1)CNC3)CC2)c1ccc2ccccc2c1` [Compound 263, (S)-N-((5,6-dihydro-4H-thieno[2,3-c]pyrrol-2-yl)methyl)-3-(((R)-1-(naphthalen-2-yl)propyl)amino)-4-oxo-4,6,7,8-tetrahydropyrrolo[1,2-a]pyrazine-6-carboxamide trifluoroacetate], the Ki at MASP-2 (CCP1-CCP2-SP) is below 500 nM; at human α-thrombin, 500 to 2500 nM.
With `O=C(NCc1cc2cnccc2[nH]1)[C@@H]1CCc2c(Cl)nc(NCC3CCCCC3)c(=O)n21` [Compound 112, (S)-N-((1H-pyrrolo[3,2-c]pyridin-2-yl)methyl)-1-chloro-3-((cyclohexylmethyl)amino)-4-oxo-4,6,7,8-tetrahydropyrrolo[1,2-alpyrazine-6-carboxamide trifluoroacetate], the Ki at MASP-2 (CCP1-CCP2-SP) is below 500 nM; at human α-thrombin, above 25000 nM.
`Cc1cc2[nH]c(CNC(=O)[C@@H]3CCc4cnc(NCc5cccc(C)c5F)c(=O)n43)cc2cn1` [Compound 61, (S)-3-((2-fluoro-3-methylbenzyl)amino)-N-((6-methyl-1H-pyrrolo[3,2-c]pyridin-2-yl)methyl)-4-oxo-4,6,7,8-tetrahydropyrrolo[1,2-a]pyrazine-6-carboxamide]: the Ki at MASP-2 (CCP1-CCP2-SP) is below 500 nM; at human α-thrombin, 2500 to 10000 nM.
For the compound `O=C(NCc1cc2cnccc2[nH]1)[C@@H]1CCc2c(Cl)nc(NCc3cccc(CO)c3)c(=O)n21` [Compound 6, (S)-N-((1H-pyrrolo[3,2-c]pyridin-2-yl)methyl)-1-chloro-3-((3-(hydroxymethyl)benzyl)amino)-4-oxo-4,6,7,8-tetrahydropyrrolo[1,2-a]pyrazine-6-carboxamide], the Ki at MASP-2 (CCP1-CCP2-SP) is below 500 nM; on human α-thrombin, 2500 to 10000 nM.
Take `O=C(NCc1cc2cnccc2[nH]1)[C@@H]1CCc2c(C3CC3)nc(NCCc3ccccc3)c(=O)n21` [Compound 247]: the Ki on MASP-2 (CCP1-CCP2-SP) is below 500 nM; on human α-thrombin, 500 to 2500 nM.
With `Cc1nc(N)ccc1CNC(=O)[C@@H]1CCc2cnc(NCc3ccccc3)c(=O)n21` [Compound 104, (S)-N-((6-amino-2-methylpyridin-3-yl)methyl)-3-(benzylamino)-4-oxo-4,6,7,8-tetrahydropyrrolo[1,2-a]pyrazine-6-carboxamide], the Ki at MASP-2 (CCP1-CCP2-SP) and at human α-thrombin was below 500 nM in each case.
As to `Cc1nc(N)ccc1CNC(=O)[C@H]1CCc2c(Cl)nc(NCc3ccccc3)c(=O)n21` [Compound 135, (R)-N-((6-amino-2-methylpyridin-3-yl)methyl)-3-(benzylamino)-1-chloro-4-oxo-4,6,7,8-tetrahydropyrrolo[1,2-a]pyrazine-6-carboxamide], the values for the Ki at MASP-2 (CCP1-CCP2-SP) and on human α-thrombin were below 500 nM and 2500 to 10000 nM, respectively.
As to `COc1cc(C)cc(CNc2nc(Cl)c3n(c2=O)[C@H](C(=O)NCc2cc4cnccc4[nH]2)CC3)c1` [Compound 7, (S)-N-((1H-pyrrolo[3,2-c]pyridin-2-yl)methyl)-1-chloro-3-((3-methoxy-5-methylbenzyl)amino)-4-oxo-4,6,7,8-tetrahydropyrrolo[1,2-a]pyrazine-6-carboxamide], the Ki at MASP-2 (CCP1-CCP2-SP) is below 500 nM; on human α-thrombin, 2500 to 10000 nM.
The matching figures for `CC[C@H]1C[C@@H](C(=O)NCc2cc3c(s2)CNC3)n2c1cnc(NCc1ccccc1)c2=O` [Compound 161, (6S,8S)-3-(benzylamino)-N-((5,6-dihydro-4H-thieno[2,3-c]pyrrol-2-yl)methyl)-8-ethyl-4-oxo-4,6,7,8-tetrahydropyrrolo[1,2-a]pyrazine-6-carboxamide hydrochloride]: below 500 nM and 500 to 2500 nM.
